Reference: ChEMBL document CHEMBL1201862, “PubChem BioAssay data set” (2004)
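Step 1: Grow cells in 96-well plates. Step 2: Expose to compound for 48 hours at 5 concentrations. Step 3: Interpolate endpoints linearly; if unreached, use highest concentration. Here, GI50 denotes the concentration required for 50% inhibition of growth.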 The source made the active and inactive calls. Rule as the data show it: active = GI50 up to about 1.1 µM and inactive = higher.

Tests used:
Test in all cases: NCI anticancer screen, dose series, 48 h
HOP-92 = test system: HOP-92
NCI-H460 = test system: NCI-H460
SK-MEL-2 = test system: SK-MEL-2
SN12C = test system: SN12C
SR = test system: SR
OVCAR-5 = test system: OVCAR-5
HL-60 = test system: HL-60
SF-268 = test system: SF-268
MOLT-4 = test system: MOLT-4
CCRF-CEM = test system: CCRF-CEM
OVCAR-3 = test system: OVCAR-3
HCT-15 = test system: HCT-15
SK-MEL-5 = test system: SK-MEL-5
UO-31 = test system: UO-31
SW-620 = test system: SW-620
KM12 = test system: KM12
MDA-MB-231 = test system: MDA-MB-231
PC-3 = test system: PC-3
NCI/ADR-RES = test system: NCI/ADR-RES
BT-549 = test system: BT-549

Structure (SMILES)	GI50 (HOP-92)	GI50 (NCI-H460)	GI50 (SK-MEL-2)	GI50 (SN12C)	GI50 (SR)	GI50 (OVCAR-5)	GI50 (HL-60)	GI50 (SF-268)	GI50 (MOLT-4)	GI50 (CCRF-CEM)	GI50 (OVCAR-3)	GI50 (HCT-15)	GI50 (SK-MEL-5)	GI50 (UO-31)	GI50 (SW-620)	GI50 (KM12)	GI50 (MDA-MB-231)	GI50 (PC-3)	GI50 (NCI/ADR-RES)	GI50 (BT-549)
COc1cc(C=C2C(=O)NC(=O)NC2=O)cc(OC)c1OC	> 100 µM (inactive)	> 100 µM (inactive)	> 100 µM (inactive)	> 100 µM (inactive)	> 100 µM (inactive)	> 100 µM (inactive)	> 100 µM (inactive)	> 100 µM (inactive)	> 100 µM (inactive)	> 100 µM (inactive)	> 100 µM (inactive)	> 100 µM	> 100 µM (inactive)	> 100 µM (inactive)	> 100 µM (inactive)	> 100 µM (inactive)	–	–	–	–
O=C(C=P(c1ccccc1)(c1ccccc1)c1ccccc1)c1ccccc1-c1ccccc1C(=O)C=P(c1ccccc1)(c1ccccc1)c1ccccc1	0.0127 µM (active)	0.0248 µM (active)	0.0212 µM (active)	0.0193 µM (active)	0.0143 µM (active)	0.0462 µM (active)	< 0.01 µM (active)	0.0351 µM (active)	0.0124 µM (active)	< 0.0128 µM (active)	< 0.01 µM (active)	0.28 µM	0.0111 µM (active)	0.228 µM (active)	0.027 µM (active)	< 0.01 µM (active)	0.0215 µM (active)	< 0.01 µM (active)	0.373 µM (active)	–
C[C@H](O)CCC(=O)c1ccoc1	> 100 µM (inactive)	> 100 µM (inactive)	> 100 µM (inactive)	> 100 µM (inactive)	> 100 µM (inactive)	> 100 µM (inactive)	> 100 µM (inactive)	> 100 µM (inactive)	> 100 µM (inactive)	> 100 µM (inactive)	> 100 µM (inactive)	> 100 µM	> 100 µM (inactive)	> 100 µM (inactive)	> 100 µM (inactive)	> 100 µM (inactive)	–	–	–	–
CCCCCCCC(CC(=O)NC(CO)C(=O)NC(CO)CC(C)C)OC(=O)CC(CCCCCCC)OC(=O)CC(CCCCCCC)OC1OC(C)C(O)C(OC2OC(C)C(O)C(OC(C)=O)C2O)C1O (stereo not drawn)	10.9 µM (inactive)	13.3 µM (inactive)	–	7.05 µM (inactive)	3.27 µM (inactive)	11.7 µM (inactive)	5.69 µM (inactive)	12 µM (inactive)	2.81 µM (inactive)	5.2 µM (inactive)	10.7 µM (inactive)	–	12.6 µM (inactive)	14.9 µM (inactive)	14.9 µM (inactive)	8.99 µM (inactive)	11.3 µM (inactive)	7.6 µM (inactive)	–	6.47 µM (inactive)
O=C(Cn1c2c(c3ccccc31)CCCC2)N1CCOCC1	> 100 µM (inactive)	> 100 µM (inactive)	> 100 µM (inactive)	> 100 µM (inactive)	–	87.3 µM (inactive)	> 100 µM (inactive)	> 100 µM (inactive)	> 100 µM (inactive)	> 100 µM (inactive)	> 100 µM (inactive)	> 100 µM	> 100 µM (inactive)	25.9 µM (inactive)	> 100 µM (inactive)	–	–	> 100 µM (inactive)	> 100 µM (inactive)	> 100 µM (inactive)
NC(=S)N1N=C2c3ccccc3CC[C@@H]2[C@@H]1c1ccccc1	11.2 µM (inactive)	5.42 µM (inactive)	5.92 µM (inactive)	5.05 µM (inactive)	1.47 µM (inactive)	24.3 µM (inactive)	2.86 µM (inactive)	10.2 µM (inactive)	4.05 µM (inactive)	3.24 µM (inactive)	2.92 µM (inactive)	3.33 µM	3.82 µM (inactive)	14.2 µM (inactive)	3.84 µM (inactive)	4.27 µM (inactive)	–	–	–	–
COc1cc2c(c(OC)c1OC)C(=O)[C@H]1OC(=O)N[C@@H]21	> 100 µM (inactive)	–	> 100 µM (inactive)	> 100 µM (inactive)	> 100 µM (inactive)	> 100 µM (inactive)	> 100 µM (inactive)	> 100 µM (inactive)	> 100 µM (inactive)	> 100 µM (inactive)	> 100 µM (inactive)	> 100 µM	–	> 100 µM (inactive)	> 100 µM (inactive)	> 100 µM (inactive)	> 100 µM (inactive)	> 100 µM (inactive)	> 100 µM (inactive)	–
CC(=O)c1c2c(cc3c1CC1(C3)Cc3cc4c(c(C(=O)O)c3C1)CCCC4)CCCC2.CC(N)c1ccccc1 (stereo not drawn)	15.4 µM (inactive)	20.2 µM (inactive)	28.1 µM (inactive)	30.7 µM (inactive)	20.3 µM (inactive)	28.5 µM (inactive)	25.5 µM (inactive)	38.7 µM (inactive)	17.6 µM (inactive)	31.7 µM (inactive)	23.6 µM (inactive)	33.7 µM	22.9 µM (inactive)	18.6 µM (inactive)	45.4 µM (inactive)	27 µM (inactive)	10 µM (inactive)	39.7 µM (inactive)	40.1 µM (inactive)	–
NS(=O)(=O)c1ccccc1C(=O)N/N=C(\c1nc2ccc([N+](=O)[O-])cc2[nH]c1=O)C(O)c1ccc([N+](=O)[O-])cc1 (stereo not drawn)	> 100 µM (inactive)	> 100 µM (inactive)	> 100 µM (inactive)	> 100 µM (inactive)	> 100 µM (inactive)	> 100 µM (inactive)	> 100 µM (inactive)	> 100 µM (inactive)	> 100 µM (inactive)	71.1 µM (inactive)	> 100 µM (inactive)	24.2 µM	44.4 µM (inactive)	63.7 µM (inactive)	> 100 µM (inactive)	66.2 µM (inactive)	–	–	–	–
COc1cc(OC)c(/C=N\Nc2nc3ccccc3c(=O)n2-c2ccccc2)c(OC)c1	24.8 µM (inactive)	21.7 µM (inactive)	25.4 µM (inactive)	30.7 µM (inactive)	36.6 µM (inactive)	43.9 µM (inactive)	33 µM (inactive)	34.9 µM (inactive)	22.9 µM (inactive)	14.2 µM (inactive)	23.6 µM (inactive)	37.4 µM	26.2 µM (inactive)	> 48.8 µM (inactive)	31 µM (inactive)	> 31.6 µM (inactive)	23.8 µM (inactive)	26.3 µM (inactive)	19.9 µM (inactive)	–
COC(=O)/C=C/c1c(CC=C(C)C)ncn1C	78.7 µM (inactive)	40.2 µM (inactive)	19.6 µM (inactive)	88.5 µM (inactive)	4.29 µM (inactive)	> 100 µM (inactive)	4.21 µM (inactive)	> 66.7 µM (inactive)	5.31 µM (inactive)	> 41.3 µM (inactive)	16.9 µM (inactive)	7.85 µM	22.1 µM (inactive)	28.2 µM (inactive)	6.79 µM (inactive)	11 µM (inactive)	–	–	–	–
C=C(C)CCC1C=[N+]([O-])OC(C)(C)C1(C)C (stereo not drawn)	> 100 µM (inactive)	> 100 µM (inactive)	–	> 100 µM (inactive)	> 100 µM (inactive)	> 100 µM (inactive)	30.1 µM (inactive)	> 100 µM (inactive)	> 100 µM (inactive)	33.3 µM (inactive)	> 100 µM (inactive)	84.3 µM	> 100 µM (inactive)	> 100 µM (inactive)	39 µM (inactive)	> 100 µM (inactive)	> 100 µM (inactive)	–	> 100 µM (inactive)	–
Cc1ccc(CNc2ccc(Br)cc2)cc1	15 µM (inactive)	23.8 µM (inactive)	–	20.9 µM (inactive)	18.8 µM (inactive)	> 100 µM (inactive)	25.2 µM (inactive)	31.9 µM (inactive)	44.8 µM (inactive)	11.5 µM (inactive)	34.8 µM (inactive)	10.4 µM	6.71 µM (inactive)	13.5 µM (inactive)	37.5 µM (inactive)	16.3 µM (inactive)	19.3 µM (inactive)	31.6 µM (inactive)	29.4 µM (inactive)	–
C=C(CN(C)C)C(=O)c1ccccc1Cl	17.1 µM (inactive)	52.8 µM (inactive)	18.1 µM (inactive)	20.9 µM (inactive)	10.8 µM (inactive)	> 43 µM (inactive)	5.5 µM (inactive)	21.9 µM (inactive)	6.68 µM (inactive)	5.7 µM (inactive)	19.7 µM (inactive)	17.3 µM	24.2 µM (inactive)	18.9 µM (inactive)	13.3 µM (inactive)	> 47.8 µM (inactive)	–	–	–	–
O=c1[nH]nc(Cc2ccccc2)n1/N=C/c1ccccc1O	53.7 µM (inactive)	> 100 µM (inactive)	> 100 µM (inactive)	> 100 µM (inactive)	–	> 100 µM (inactive)	> 100 µM (inactive)	50.1 µM (inactive)	> 100 µM (inactive)	> 100 µM (inactive)	> 100 µM (inactive)	> 100 µM	> 100 µM (inactive)	> 100 µM (inactive)	> 100 µM (inactive)	> 100 µM (inactive)	63.2 µM (inactive)	–	> 100 µM (inactive)	> 100 µM (inactive)
O=c1[nH]c(=O)n(C2OC(CO)C(O)C2O)cc1OCC(F)(F)F (stereo not drawn)	> 100 µM (inactive)	> 100 µM (inactive)	> 100 µM (inactive)	> 100 µM (inactive)	> 100 µM (inactive)	> 100 µM (inactive)	> 100 µM (inactive)	> 100 µM (inactive)	> 100 µM (inactive)	> 100 µM (inactive)	> 100 µM (inactive)	> 100 µM	> 100 µM (inactive)	> 100 µM (inactive)	> 100 µM (inactive)	> 100 µM (inactive)	–	–	–	–
